Source: patent US10894946B2, “Multiloop engineered heart muscle tissue” (Tissue Systems Holding GmbH, priority 2005, dated 2021)
“Also recorded” adds a separate entry of the source.

Tested on: engineered heart tissue (EHT) rings from heart cells of neonatal rats
Assay: isometric contraction experiments of single EHT rings (twitch tension, calcium response curves)
Type: cell-based, rat
Settings: culture medium supplemented with 10 pg/ml insulin vs untreated controls; n=4 vs n=3
Procedure: In a further step, the force-generating engineered heart tissue rings, which are in contact with each other, are cultured under conditions which allow the fusion of the contacted ring structures to form an artificial heart muscle construct. For this purpose, the engineered heart tissue rings are normally incubated in culture dishes, wherein the rings are submersed in appropriate culture medium. If a holding device is used for culturing, the device should be designed to allow the tissue rings to stay in continuous contact with the culture medium. The choice of the culture medium is not critical. Conventional media for culturing cardiac myocytes may be used. Such media are known in the art and described, for example, in Zimmermann, W. H. et al., Circulation 106, I 151-7 (2002) and published International Application WO 01/55297. […]
FIGS. 1A-1F show the influences of oxygen, load, and insulin in isometric contraction experiments in single engineered heart tissue (EHT) rings (TT: twitch tension). […] To increase size, 5 EHT rings (FIG. 1D) were stacked in a custom made device that facilitate EHT fusion and contractions under auxotonic load (FIG. 1E), resulting in synchronously contracting multiring EHT constructs (FIG. 1F) ready for in vivo engraftment. *P<0.05 vs. 21% 02, static load, and culture in the absence of insulin (Ctr.), respectively by repeated ANOVA. […]

Substance: insulin
- contracting characteristics (twitch tension) of EHT rings: benefited; also recorded: enhanced contracting characteristics
